How the values were obtained:
D(1A) dopamine receptor = D(1A) dopamine receptor (Homo sapiens, UniProt P21728); experiment: Displacement of [3H]SCH23390 from human D1 dopamine receptor expressed in Ltk fibroblast cells after 60 mins by liquid scintillation counter; format: cell-based
D(2) dopamine receptor [1] = molecular target: T1, D(2) dopamine receptor (Rattus norvegicus, UniProt P61169); experiment: Displacement of [3H]raclopride from rat D2 dopamine receptor expressed in CHOK1 cells after 90 mins by liquid scintillation counter scintillation counter; format: cell-based, CHO-K1
D(2) dopamine receptor [2] = molecular target: T1, D(2) dopamine receptor; experiment: Agonist activity at rat D2 dopamine receptor expressed in CHOK1 cells assessed as [35S]GTPgammaS binding after 90 mins by liquid scintillation counter; format: functional, cell-based, CHO-K1
[3] = Selectivity ratio of Ki for rat D2 dopamine receptor to Ki for human D1 dopamine receptor

T1 sequence (P61169 whole entry): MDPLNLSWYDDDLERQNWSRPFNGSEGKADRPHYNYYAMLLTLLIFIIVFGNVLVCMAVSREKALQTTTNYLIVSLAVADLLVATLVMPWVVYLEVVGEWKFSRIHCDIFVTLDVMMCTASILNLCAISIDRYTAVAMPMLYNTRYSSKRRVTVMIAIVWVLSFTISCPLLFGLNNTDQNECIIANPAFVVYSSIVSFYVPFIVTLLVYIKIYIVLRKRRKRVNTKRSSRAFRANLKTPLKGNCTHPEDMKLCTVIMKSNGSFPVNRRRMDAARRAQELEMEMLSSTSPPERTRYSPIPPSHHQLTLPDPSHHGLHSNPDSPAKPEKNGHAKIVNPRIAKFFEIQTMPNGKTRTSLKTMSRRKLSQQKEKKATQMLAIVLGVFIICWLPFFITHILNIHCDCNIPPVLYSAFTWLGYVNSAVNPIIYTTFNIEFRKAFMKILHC
Chain of D(1A) dopamine receptor (P21728 whole entry): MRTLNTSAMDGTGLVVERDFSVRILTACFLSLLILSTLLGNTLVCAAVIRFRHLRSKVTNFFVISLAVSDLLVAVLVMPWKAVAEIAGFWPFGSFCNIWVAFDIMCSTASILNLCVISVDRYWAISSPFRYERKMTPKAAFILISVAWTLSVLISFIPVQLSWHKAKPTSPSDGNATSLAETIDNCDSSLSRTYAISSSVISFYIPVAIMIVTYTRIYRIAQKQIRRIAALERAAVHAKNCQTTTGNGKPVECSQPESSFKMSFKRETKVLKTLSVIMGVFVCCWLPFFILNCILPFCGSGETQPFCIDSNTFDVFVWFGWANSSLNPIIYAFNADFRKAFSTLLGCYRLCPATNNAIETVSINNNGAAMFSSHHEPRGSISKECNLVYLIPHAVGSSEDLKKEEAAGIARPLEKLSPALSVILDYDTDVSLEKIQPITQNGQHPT

Compound | Ki (D(1A) dopamine receptor) | Ki (D(2) dopamine receptor [1]) | EC50 (D(2) dopamine receptor [2]) | Ratio Ki [3]
CN1CCc2cc(SCCN)cc3c2[C@H]1Cc1ccc(O)c(O)c1-3 | 1300 nM | 9.6 nM | 16 nM | 135
CN1CCc2cc(SCCC(=O)O)cc3c2[C@H]1Cc1ccc(O)c(O)c1-3 | 150 nM | 400 nM | 148 nM | 0.4
CN1CCc2cc(SC[C@H](N)C(=O)O)cc3c2[C@H]1Cc1ccc(O)c(O)c1-3 | 4200 nM |  |  | 

The remaining lines, values ahead:

Ki (D(1A) dopamine receptor) | Ki (D(2) dopamine receptor [1]) | EC50 (D(2) dopamine receptor [2]) | Ratio Ki [3] | Compound
141 nM |  |  |  | CN1CCc2cc(SC[C@@H](N)C(=O)O)cc3c2[C@H]1Cc1ccc(O)c(O)c1-3
140 nM | 415 nM | 383 nM | 0.3 | CN1CCc2c3c(cc4c2[C@H]1Cc1ccc(O)c(O)c1-4)SCCC3=O
2200 nM | 580 nM | 820 nM | 47 | CN1CCc2cc(Sc3ccccc3)cc3c2[C@H]1Cc1ccc(O)c(O)c1-3
380 nM | 10 nM | 24 nM | 38 | COC(=O)[C@@H](N)CSc1cc2c3c(c1)-c1c(ccc(O)c1O)C[C@H]3N(C)CC2
